From ChEMBL document CHEMBL1141020, “Anthranilimide-based glycogen phosphorylase inhibitors for the treatment of type 2 diabetes: 1. Identification of 1-amino-1-cycloalkyl carboxylic acid headgroups” (Bioorg Med Chem Lett, 2009) come the findings set out here.

Series [1] in a line: Clearance in Sprague-Dawley rat at 10 mg/kg, po or 2.5 mg/kg, iv. The series is classed as ADME, organism-based. The note with it: in vivo.
Series [2] can be described thus: AUC (0 to infinity) in Beagle dog at 1 mg/kg, po. The series is classed as ADME, organism-based, Canis lupus familiaris. Set-up: time infinity, dose 1 mg/kg, route oral. The note with it: plasma.
Series [3] is described as follows: Oral bioavailability in Sprague-Dawley rat at 10 mg/kg. The series is classed as ADME, organism-based. As to conditions: in vivo.
Series [4] can be described thus: Clearance in Beagle dog at 5 mg/kg, po or 1 mg/kg, iv. The series is classed as ADME, organism-based, Canis lupus familiaris. As to conditions: in vivo.
Series [5] is described as follows: Oral bioavailability in Beagle dog at 5 mg/kg. As to conditions: in vivo. The series is classed as ADME, organism-based, Canis lupus familiaris.
Series [6] can be described thus: AUC (0 to infinity) in Sprague-Dawley rat at 1 mg/kg, po. The series is classed as ADME, organism-based. Set-up: time infinity, dose 1 mg/kg, route oral. As to conditions: plasma.
Series [7] in a line: Half life in Beagle dog at 5 mg/kg, po. The series is classed as ADME, organism-based, Canis lupus familiaris. Set-up: dose 5 mg/kg, route oral. As to conditions: in vivo.
The nature of series [8]: Half life in Sprague-Dawley rat at 10 mg/kg, po. The series is classed as ADME, organism-based. Set-up: dose 10 mg/kg, route oral. As to conditions: in vivo.
A short description of series [9]: Volume of distribution at steady state in Sprague-Dawley rat at 10 mg/kg, po or 2.5 mg/kg, iv. The series is classed as ADME, organism-based. As to conditions: in vivo, read-out: Vdss.
The nature of series [10]: Volume of distribution at steady state in Beagle dog at 5 mg/kg, po or 1 mg/kg, iv. The series is classed as ADME, organism-based, Canis lupus familiaris. As to conditions: in vivo, read-out: Vdss.
Series [11] can be described thus: Metabolic stability in rat liver microsomes assessed as half life. The series is classed as ADME, Microsome. For orientation: Microsomes from liver hold many membrane-bound enzymes, among them those of drug oxidation.

Bounds are passed on as bounds.

For `Cc1cc(C)c(NC(=O)Nc2cc3ccccc3cc2C(=O)NC2(C(=O)O)CCCCCCC2)c(C)c1`, the clearance in series [1] came to 1.1 mL/min/kg; in series [4] it was 13 mL/min/kg. Besides, the AUC(0-inf) in series [2] stood at 620 ng·h/mL; in series [6] it was 4380 ng·h/mL. Also, the bioavailability in series [3] worked out at 28%; in series [5] it was 45%. Further, the half-life is 4 h in series [7] and 5.4 h in [8]. In addition, the Vd in series [9] was 0.28 L/kg; in series [10], 0.5 L/kg.
For `Cc1cc(C)c(NC(=O)Nc2cc3ccccc3cc2C(=O)N[C@H](C(=O)O)C2CCCCC2)c(C)c1`, the half-life in series [11] was less than 0.25 h.
In series [1], `Cc1cc(C)c(NC(=O)Nc2cc3ccccc3cc2C(=O)N[C@](C)(C(=O)O)C2CCCCC2)c(C)c1` displayed a clearance of 7.5 mL/min/kg. The bioavailability in [3] came out at 37%. In series [6], the AUC(0-inf) amounted to 1720 ng·h/mL. In [8], this molecule showed a half-life of 4.1 h. Besides, the Vd in series [9] came out at 0.3 L/kg.

What is called AUC(0-inf) is total exposure, with the tail of the curve extrapolated. A word on the bioavailability: it is the share of a dose that reaches the circulation, judged against a reference dose that is usually intravenous. Low values mean poor availability, high ones good availability. A word on the half-life: it is how long it takes for the measured level to halve.
